Assay results as given in patent publication US20260317314A1, “NITROGEN-CONTAINING HETEROCYCLIC COMPOUND AND USE THEREOF” (JIANGSU DEYUAN PHARMACEUTICAL CO.,LTD., priority 2023, published 2026).

Tests used:
CYP2D6 = biological target: T1, CYP2D6 (Homo sapiens, UniProt P10635); experiment: Human liver microsome CYP inhibition assay, CYP2D6; format: in vitro ADME; details: role: inhibitor; human liver microsomes, probe substrate; read-out: CYP2D6 half maximal inhibitory concentration IC50
T1 construct: Mixed human liver microsomes (HLM) were purchased from Corning Inc; tissue Corning Inc; host or cells: mixed human liver microsomes (HLM)
Procedure: (§1) Experimental objective: To evaluate the inhibitory activity of the test substance on human liver microsomal cytochrome P450 isoenzymes (CYP1A2, CYP2C9, CYP2C19, CYP2D6, CYP3A4) using a 5-in-1 probe substrate for CYP isoenzymes.
(§2) Mixed human liver microsomes (HLM) were purchased from Corning Inc. (Steuben, New York, USA) and stored at temperatures below −70° C. prior to use.
(§3) The working solution of the test substance, which had been diluted to a series of concentrations, was added to an incubation system containing human liver microsomes, probe substrates, and auxiliary factors of the circulatory system. A control containing solvent but no test substance served as an enzyme activity control (100%). The concentration of metabolites produced from probe substrates in the samples was determined using Liquid Chromatography-Tandem Mass Spectrometry (LC-MS/MS) method. Non-linear regression analysis of the average percentage activity of the test substance against its concentration was conducted using SigmaPlot (V.11). The IC50 values were calculated using a three-parameter or four-parameter inverse log equation.

[1] = Plasma protein binding rate test, human (equilibrium dialysis); format: in vitro ADME; details: 37° C.
Source text: (§4) The sample was thoroughly mixed.

[2] = In vitro liver microsome metabolic stability study; format: in vitro ADME; details: human liver microsomes 0.5 mg/mL, compound 1 μM, 37° C., up to 60 minutes; read-out: Intrinsic hepatic clearance CLint(liver)
Procedure: Stock solution: 10 mM in DMSO.
Only 54 μL of microsomal working solution, 6 μL of NADPH regeneration system working solution, and 180 μL of stop solution were added to the blank plate.
LC-MS/MS analysis was performed.

CYP3A4 = biological target: T2, CYP3A4 (Homo sapiens, UniProt P08684); experiment: Human liver microsome CYP inhibition assay, CYP3A4; format: in vitro ADME; details: role: inhibitor; human liver microsomes, probe substrate; read-out: CYP3A4 half maximal inhibitory concentration IC50
T2 construct: Mixed human liver microsomes (HLM) were purchased from Corning Inc; tissue Corning Inc; host or cells: mixed human liver microsomes (HLM)
Procedure: as §1, §2, §3

[3] = Plasma protein binding rate test, cynomolgus monkey (equilibrium dialysis); format: in vitro ADME; details: 37° C., read-out: Plasma protein binding rate (%) in cynomolgus monkeys (converted)
Source text: as §4

[4] = Plasma protein binding rate test, SD rat (equilibrium dialysis); format: in vitro ADME; details: 37° C., read-out: Plasma protein binding rate (%) in SD rats (converted)
Source text: as §4

CYP1A2 = biological target: T3, CYP1A2 (Homo sapiens, UniProt P05177); experiment: Human liver microsome CYP inhibition assay, CYP1A2; format: in vitro ADME; details: role: inhibitor; human liver microsomes, probe substrate; read-out: CYP1A2 half maximal inhibitory concentration IC50
T3 construct: Mixed human liver microsomes (HLM) were purchased from Corning Inc; tissue Corning Inc; host or cells: mixed human liver microsomes (HLM)
T3 sequence (P05177 1-516): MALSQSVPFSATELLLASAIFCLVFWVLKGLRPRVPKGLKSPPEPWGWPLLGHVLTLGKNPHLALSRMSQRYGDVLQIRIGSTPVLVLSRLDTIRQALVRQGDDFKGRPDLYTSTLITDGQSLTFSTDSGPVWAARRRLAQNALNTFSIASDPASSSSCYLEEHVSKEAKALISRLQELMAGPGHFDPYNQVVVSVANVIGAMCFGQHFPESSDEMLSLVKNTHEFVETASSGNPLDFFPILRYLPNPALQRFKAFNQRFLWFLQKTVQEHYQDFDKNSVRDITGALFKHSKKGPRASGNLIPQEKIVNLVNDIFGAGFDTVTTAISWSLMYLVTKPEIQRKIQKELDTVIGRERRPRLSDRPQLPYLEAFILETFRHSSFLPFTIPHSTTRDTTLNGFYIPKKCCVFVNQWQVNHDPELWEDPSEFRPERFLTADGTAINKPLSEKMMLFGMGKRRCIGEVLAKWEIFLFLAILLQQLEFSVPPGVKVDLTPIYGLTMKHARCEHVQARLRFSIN
Procedure: as §1, §2, §3

CYP2C9 = biological target: T4, CYP2C9 (Homo sapiens, UniProt P11712); experiment: Human liver microsome CYP inhibition assay, CYP2C9; format: in vitro ADME; details: role: inhibitor; human liver microsomes, probe substrate; read-out: CYP2C9 half maximal inhibitory concentration IC50
T4 construct: Mixed human liver microsomes (HLM) were purchased from Corning Inc; tissue Corning Inc; host or cells: mixed human liver microsomes (HLM)
Procedure: as §1, §2, §3

[5] = Permeability test in MDR1-MDCKII monolayer cell model; format: in vitro ADME; details: dog; for efflux ratio at 2.5 h, 2 µM: MDCK-MDR1, pH 7.4, ER=Papp(BA)/Papp(AB); for Papp A→B at 2.5 h, 2 µM: MDCK-MDR1, pH 7.4, pH 7.40, 2.5 hours, 37±1° C., read-out: Apparent permeability coefficient (Papp (AB))
Procedure: Experimental objective: The permeability and efflux ratio of the compound of the present disclosure were determined using the MDR1-MDCKII monolayer cell model to assess its membrane permeability and potential for P-gp-mediated efflux transport.
Experimental protocol: MDR1-MDCKII cells (obtained from the Netherlands Cancer Institute) were seeded in 96-well plates (obtained from Corning) at a cell density of 3.33×10^5 cells/mL and cultured for 4 to 7 days to form confluent cell monolayers. Hank's balanced salt solution containing 10 mM HEPES (pH 7.40) was used as the transport buffer. The test compound was evaluated for bidirectional transport at a concentration of 2 μM, with the DMSO concentration in the incubation system maintained below 1%. After adding the samples, the cell plate was incubated at 37±1° C., 5% CO2, and saturated humidity for 2.5 hours. All samples were quantitatively analyzed using the LC-MS/MS method. The apparent permeability coefficient (Papp, cm/s) and efflux ratio (ER) were calculated using the following formula. Apparent permeability coefficient (Papp, cm/s) was calculated using the following formula: Papp=(dCr/dt)×Vr/(A×C0). Herein, dCr/dt represents the cumulative concentration of the compound at the receiving end per unit time (μM/s); Vr is the volume of the solution at the receiving end (with solution volumes at the apical and basolateral ends being 0.075 mL and 0.250 mL, respectively); A is the relative surface area of the cell monolayer (0.143 cm^2); C0 is the initial concentration of the test substance at the dosing end (μM) or the peak area ratio of the reference substance. The efflux ratio was calculated using the following formula: ER=Papp(BA)/Papp(AB).

CYP2C19 = biological target: T5, CYP2C19 (Homo sapiens, UniProt P33261); experiment: Human liver microsome CYP inhibition assay, CYP2C19; format: in vitro ADME; details: role: inhibitor; human liver microsomes, probe substrate; read-out: CYP2C19 half maximal inhibitory concentration IC50
T5 construct: Mixed human liver microsomes (HLM) were purchased from Corning Inc; tissue Corning Inc; host or cells: mixed human liver microsomes (HLM)
Procedure: as §1, §2, §3

human CYP11B1 = biological target: T6, human CYP11B1 (Homo sapiens, UniProt P15538); experiment: In vitro activity assay of monoclonal cells overexpressing human CYP11B1; format: cell-based; details: G402 cells overexpressing human CYP11B1; substrate 11-deoxycortisol 1 μM; 16 hours
T6 construct: expressed in transfected cells; host or cells: human renal leiomyoma G402 cell line (monoclonal cells overexpressing human CYP11B1)
T6 sequence (P15538 25-503): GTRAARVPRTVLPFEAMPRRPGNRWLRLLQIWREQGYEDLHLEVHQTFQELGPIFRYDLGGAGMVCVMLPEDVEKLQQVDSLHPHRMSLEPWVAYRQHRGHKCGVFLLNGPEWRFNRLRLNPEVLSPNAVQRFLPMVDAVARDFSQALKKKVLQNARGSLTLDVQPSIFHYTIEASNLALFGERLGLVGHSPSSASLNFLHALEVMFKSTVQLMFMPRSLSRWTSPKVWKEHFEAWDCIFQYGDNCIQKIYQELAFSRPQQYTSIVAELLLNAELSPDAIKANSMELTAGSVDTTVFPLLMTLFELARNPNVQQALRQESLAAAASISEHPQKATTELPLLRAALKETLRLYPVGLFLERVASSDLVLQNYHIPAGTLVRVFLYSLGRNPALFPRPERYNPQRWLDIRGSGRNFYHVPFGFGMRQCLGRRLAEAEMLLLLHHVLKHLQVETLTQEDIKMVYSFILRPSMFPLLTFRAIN
Procedure: The human renal leiomyoma G402 cell line overexpressing human CYP11B1 was selected to serve as a compound selectivity screening system. Details are as follows: • 1) The cells, reagents, and instrument information were consistent with Experimental Example 1 (activity of monoclonal cells overexpressing human CYP11B2). • 2) Compound details: The test compound was prepared as a […] working concentration using DMSO. • 3) Experimental procedure
Day 1: Cells were digested, and human renal leiomyoma G402 cells overexpressing CYP11B1 were resuspended to 1×10^5 cells/mL, with […] seeded into a 96-well plate.
Day 2: The medium was replaced with DMEM/F12 containing 2.5% charcoal-stripped fetal bovine serum.
After one hour, the substrate was added: 30 mM 11-deoxycortisol was diluted 1500-fold with culture medium, and 5 μL was dispensed per well to achieve a final concentration of 1 μM, followed by incubation for 16 hours.
Day 3: The cell supernatant was collected and added to 200 μL of a methanol solution containing internal standards (internal standards: 35 ng/mL ketoprofen or 7.5 ng/mL carbamazepine or 5 ng/mL diphenhydramine or 10 ng/mL tolbutamide). […] The mixture was centrifuged (4000 g, 4° C., 15 min), and the supernatant was analyzed by ESI-LCMS/MS. • 4) Data analysis: […]
(§5) The IC50 of the test compound was determined by fitting to a nonlinear regression equation using XLfit 5.5.0.

human CYP11B2 = biological target: T7, human CYP11B2 (Homo sapiens, UniProt P19099); experiment: In vitro activity assay of monoclonal cells overexpressing human CYP11B2; format: cell-based; details: G402 cells overexpressing human CYP11B2; substrate 11-deoxycorticosterone; 16 hours; aldosterone by LCMS/MS
T7 construct: expressed in transfected cells; host or cells: human renal leiomyoma G402 cell line (monoclonal cells overexpressing human CYP11B2)
T7 sequence (P19099 25-503): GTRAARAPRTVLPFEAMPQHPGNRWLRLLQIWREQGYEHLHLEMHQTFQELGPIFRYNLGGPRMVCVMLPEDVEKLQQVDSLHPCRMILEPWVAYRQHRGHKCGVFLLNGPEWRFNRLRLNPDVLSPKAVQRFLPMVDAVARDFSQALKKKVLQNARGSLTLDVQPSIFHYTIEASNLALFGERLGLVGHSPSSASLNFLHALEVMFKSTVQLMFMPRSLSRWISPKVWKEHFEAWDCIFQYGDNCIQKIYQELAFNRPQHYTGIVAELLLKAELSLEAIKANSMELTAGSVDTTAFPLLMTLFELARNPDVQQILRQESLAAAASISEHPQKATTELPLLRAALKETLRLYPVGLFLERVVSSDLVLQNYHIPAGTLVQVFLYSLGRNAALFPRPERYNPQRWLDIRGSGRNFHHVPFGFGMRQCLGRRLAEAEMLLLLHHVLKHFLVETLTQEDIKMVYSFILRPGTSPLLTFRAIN
Procedure: The human renal leiomyoma G402 cell line overexpressing human CYP11B2 was selected to serve as a compound activity screening system.
• 2) Compound details: The test compound was prepared as a 10 μM working concentration using DMSO.
Day 1: Cells were digested, and human renal leiomyoma G402 cells overexpressing human CYP11B2 were resuspended to 1×10^5 cells/mL, with 100 μL seeded into a 96-well plate.
Day 2: The medium was replaced with DMEM/F12 containing 2.5% charcoal-stripped fetal bovine serum; test compounds were added: 5 μL of test compound was added to the cell culture medium to achieve final concentrations of 10000, 2500, 625, 156.25, 39.06, 9.77, 2.44, 0.61, 0.15, and 0 nM (with a DMSO content of 0.1%).
After one hour, the substrate was added: 30 mM 11-deoxycorticosterone was diluted 1500-fold with culture medium, and 5 μL was dispensed per well to achieve a final concentration of […], followed by incubation for 16 hours.
Day 3: The cell supernatant was collected and added to 200 μL of a methanol solution containing internal standards (internal standards: 35 ng/mL ketoprofen or 7.5 ng/mL carbamazepine or 5 ng/mL diphenhydramine or 10 ng/mL tolbutamide). The mixture was vortexed and centrifuged (4000×g, 4° C., 5 minutes). Then, 100 μL of the supernatant was taken and mixed with 100 μL of pure water. The mixture was centrifuged (4000 g, 4° C., 15 min), and the supernatant was analyzed by ESI-LCMS/MS. • 4) Data analysis:
Ratio=Aldosterone peak area/Internal standard peak area
Control activity %=(Ratio test compound/Ratio DMSO)×100%
“Ratio test compound” represents the Ratio values at different concentrations of the test compound.
“Ratio DMSO” represents the Ratio value without the addition of the test compound. • X=Log (compound concentration) • Y=Control activity %
as §5

[6] = In vivo pharmacokinetics study in rats; parameters: species or system SD rat; details: rat, plasma, male SD rats, oral 2 mg/kg

T4 sequence (P11712 whole entry): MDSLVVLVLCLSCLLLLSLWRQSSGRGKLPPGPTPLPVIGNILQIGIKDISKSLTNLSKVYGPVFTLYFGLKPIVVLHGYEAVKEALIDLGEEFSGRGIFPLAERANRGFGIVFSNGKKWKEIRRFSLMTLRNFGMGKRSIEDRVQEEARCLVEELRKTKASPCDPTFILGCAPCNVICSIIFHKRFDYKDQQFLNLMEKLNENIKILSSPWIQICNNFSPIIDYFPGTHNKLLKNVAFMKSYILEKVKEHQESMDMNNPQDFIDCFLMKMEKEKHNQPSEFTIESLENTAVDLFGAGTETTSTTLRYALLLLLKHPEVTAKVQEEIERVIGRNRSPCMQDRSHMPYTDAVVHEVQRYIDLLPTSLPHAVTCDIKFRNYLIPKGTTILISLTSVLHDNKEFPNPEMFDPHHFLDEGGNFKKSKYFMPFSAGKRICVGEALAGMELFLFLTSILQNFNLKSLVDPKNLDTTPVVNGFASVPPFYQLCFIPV
T1 sequence (P10635 whole entry): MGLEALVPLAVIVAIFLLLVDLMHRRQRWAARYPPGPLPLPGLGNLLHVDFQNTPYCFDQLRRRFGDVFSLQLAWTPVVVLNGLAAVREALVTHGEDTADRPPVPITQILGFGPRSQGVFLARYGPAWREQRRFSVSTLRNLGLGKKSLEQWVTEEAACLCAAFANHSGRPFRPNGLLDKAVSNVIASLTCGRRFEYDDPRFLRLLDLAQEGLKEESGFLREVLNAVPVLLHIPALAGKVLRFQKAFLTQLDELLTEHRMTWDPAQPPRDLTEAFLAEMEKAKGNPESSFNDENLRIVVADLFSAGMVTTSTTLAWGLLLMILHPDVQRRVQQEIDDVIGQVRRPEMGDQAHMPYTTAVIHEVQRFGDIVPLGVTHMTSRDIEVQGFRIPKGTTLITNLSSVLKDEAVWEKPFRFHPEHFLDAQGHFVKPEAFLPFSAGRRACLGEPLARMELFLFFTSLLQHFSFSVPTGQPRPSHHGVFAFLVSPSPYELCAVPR
T2 sequence (P08684 whole entry): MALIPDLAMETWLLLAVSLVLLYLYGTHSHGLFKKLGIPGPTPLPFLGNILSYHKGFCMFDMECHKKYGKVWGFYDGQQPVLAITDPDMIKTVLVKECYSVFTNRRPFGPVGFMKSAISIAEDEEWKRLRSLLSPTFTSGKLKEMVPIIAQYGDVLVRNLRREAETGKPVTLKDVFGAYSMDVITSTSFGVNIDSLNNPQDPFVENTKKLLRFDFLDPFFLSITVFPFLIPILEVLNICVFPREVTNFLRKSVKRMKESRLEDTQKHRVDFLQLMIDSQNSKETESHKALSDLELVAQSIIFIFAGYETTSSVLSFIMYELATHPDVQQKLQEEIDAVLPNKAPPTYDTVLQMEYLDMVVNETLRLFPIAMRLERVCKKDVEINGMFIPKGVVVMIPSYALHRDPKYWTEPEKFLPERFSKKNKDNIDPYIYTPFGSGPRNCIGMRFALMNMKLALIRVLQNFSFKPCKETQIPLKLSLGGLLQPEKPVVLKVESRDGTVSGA
T5 sequence (P33261 whole entry): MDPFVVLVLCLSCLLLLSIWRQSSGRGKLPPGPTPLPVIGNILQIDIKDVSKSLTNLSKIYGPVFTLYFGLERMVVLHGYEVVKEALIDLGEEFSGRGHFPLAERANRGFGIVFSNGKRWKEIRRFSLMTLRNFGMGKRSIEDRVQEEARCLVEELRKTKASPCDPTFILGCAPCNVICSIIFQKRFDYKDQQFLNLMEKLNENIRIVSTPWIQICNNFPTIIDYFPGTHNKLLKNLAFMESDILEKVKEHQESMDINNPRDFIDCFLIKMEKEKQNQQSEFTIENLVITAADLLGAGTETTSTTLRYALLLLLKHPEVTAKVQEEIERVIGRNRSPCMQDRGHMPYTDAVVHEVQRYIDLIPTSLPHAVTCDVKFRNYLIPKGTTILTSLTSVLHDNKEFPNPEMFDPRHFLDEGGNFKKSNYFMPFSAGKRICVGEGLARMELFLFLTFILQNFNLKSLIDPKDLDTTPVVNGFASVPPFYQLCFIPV

Row | Compound | IC50 (CYP2D6) | fraction unbound at 4 h [1] | CLint scaled at 1 µM [2] | IC50 (CYP3A4) | fraction unbound at 4 h [3] | fraction unbound at 4 h [4] | IC50 (CYP1A2) | IC50 (CYP2C9) | efflux ratio at 2.5 h, 2 µM [5] | Papp A→B at 2.5 h, 2 µM [5] | IC50 (CYP2C19) | IC50 (human CYP11B1) | IC50 (human CYP11B2) | bioavailability [6] | half-life [6] | Cmax [6] | AUC(0-t) at 24 h ([6]; read-out: AUC0-24 h)
1 | CCC(=O)NC1CCCc2c(-c3ccc4c(c3)OCC(=O)N4C)cncc21 (single isomer, unassigned) [Compound 011] | > 50 µM | 0.245 | < 8.6 mL/min/kg | > 50 µM | 0.245 | 0.139 | > 50 µM | > 50 µM | 0.89 | 24.3 ×10⁻⁶ cm/s | > 50 µM |  |  |  |  |  | 
2 | CCC(=O)N[C@@H]1CCCc2c(-c3cnc4c(ccc(=O)n4C)c3)cncc21 (single isomer, unassigned) [Compound 022] |  |  |  |  |  |  |  |  |  |  |  | 6.89 µM | 0.0487 µM |  |  |  | 
3 | CCC(=O)NC1CCOc2c(-c3cc4c(s3)N(C)C(=O)CC4)cncc21 (single isomer, unassigned) [Compound 046] | > 50 µM | 0.166 | < 8.6 mL/min/kg | > 50 µM | 0.304 |  | > 50 µM | > 50 µM | 1.17 | 18 ×10⁻⁶ cm/s | > 50 µM |  |  | 71% | 3.23 h | 7.86 µM | 36.6 µM·h
